Molecular target: GST tagged truncated human mutant G2019S LRRK2 (Homo sapiens (Human), UniProt Q5S007, G2019S)
Test: LRRK2 Km ATP LanthaScreen Assay
Format: biochemical
Conditions: G2019S LRRK2, 134 μM ATP (Km ATP), mean values; for IC50: read-out: LRRK2 pIC50 (converted)
In short: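 Enzyme (GST-tagged, truncated) was preincubated with compound for 15 min at RT in 50 mM Tris pH 8.5, 10 mM MgCl2, 0.01% Brij-35, 1 mM EGTA, 2 mM DTT and 0.05 mM orthovanadate. Fluorescein-LRRKtide and 134 μM ATP (Km) were then added for 90 min. EDTA and Tb-anti-pERM antibody stopped the reaction; the TR-FRET 520/495 ratio gave 4-parameter IC50s, reported as mean pIC50.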

GST tagged truncated human mutant G2019S LRRK2, sequence (Q5S007 970-2527 G2019S): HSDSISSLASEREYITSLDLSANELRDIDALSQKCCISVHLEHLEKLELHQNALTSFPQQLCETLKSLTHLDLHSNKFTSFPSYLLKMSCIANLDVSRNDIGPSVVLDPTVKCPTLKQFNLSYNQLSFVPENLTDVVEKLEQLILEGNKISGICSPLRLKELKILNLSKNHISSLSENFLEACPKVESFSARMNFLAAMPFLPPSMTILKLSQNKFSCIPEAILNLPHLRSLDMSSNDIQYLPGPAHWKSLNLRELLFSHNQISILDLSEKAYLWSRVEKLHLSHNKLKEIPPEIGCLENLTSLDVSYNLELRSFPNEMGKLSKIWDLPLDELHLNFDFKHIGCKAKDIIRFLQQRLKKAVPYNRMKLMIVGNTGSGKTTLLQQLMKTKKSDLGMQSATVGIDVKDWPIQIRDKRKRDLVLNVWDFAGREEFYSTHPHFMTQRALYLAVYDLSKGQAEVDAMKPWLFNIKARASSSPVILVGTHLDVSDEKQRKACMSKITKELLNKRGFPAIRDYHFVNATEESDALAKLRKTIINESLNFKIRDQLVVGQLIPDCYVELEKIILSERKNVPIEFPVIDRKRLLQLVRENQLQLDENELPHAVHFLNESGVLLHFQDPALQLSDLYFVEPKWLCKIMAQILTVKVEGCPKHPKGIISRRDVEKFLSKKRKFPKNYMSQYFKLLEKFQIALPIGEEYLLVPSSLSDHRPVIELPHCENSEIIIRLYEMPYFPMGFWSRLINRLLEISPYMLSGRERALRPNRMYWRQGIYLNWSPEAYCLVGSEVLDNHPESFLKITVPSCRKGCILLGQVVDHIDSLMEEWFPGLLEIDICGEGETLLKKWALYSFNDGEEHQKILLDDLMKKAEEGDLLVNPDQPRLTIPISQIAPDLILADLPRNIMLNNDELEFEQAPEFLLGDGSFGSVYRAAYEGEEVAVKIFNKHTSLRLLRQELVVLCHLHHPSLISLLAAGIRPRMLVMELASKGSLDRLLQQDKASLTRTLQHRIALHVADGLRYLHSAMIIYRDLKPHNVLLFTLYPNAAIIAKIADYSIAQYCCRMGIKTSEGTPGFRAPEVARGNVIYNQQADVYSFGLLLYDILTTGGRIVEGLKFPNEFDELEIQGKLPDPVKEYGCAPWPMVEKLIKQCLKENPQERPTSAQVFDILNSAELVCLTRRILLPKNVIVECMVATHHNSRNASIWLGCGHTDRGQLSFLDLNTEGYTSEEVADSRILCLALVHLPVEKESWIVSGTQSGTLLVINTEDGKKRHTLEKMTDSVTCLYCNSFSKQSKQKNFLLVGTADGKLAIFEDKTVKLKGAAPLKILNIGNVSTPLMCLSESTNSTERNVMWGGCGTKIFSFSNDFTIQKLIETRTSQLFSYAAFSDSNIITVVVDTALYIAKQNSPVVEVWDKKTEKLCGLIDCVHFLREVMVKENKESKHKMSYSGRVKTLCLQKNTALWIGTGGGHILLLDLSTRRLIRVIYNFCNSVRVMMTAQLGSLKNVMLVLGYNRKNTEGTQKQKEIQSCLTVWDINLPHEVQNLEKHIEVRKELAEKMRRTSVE

Row | SMILES | LRRK2 pIC50 | IC50
1 | OC1CCCC1N1CC[C@@H](c2cc3nc(Nc4cnn(C5CC5)c4Cl)ncc3cc2Cl)[C@H](F)C1 (single isomer, unassigned) [Ex-4.157, (1S,2R)(3S,4S) or (1R,2S)(3S,4S) or (1R,2R)(3S,4S) or (1S,2S)(3S,4S) or (1S,2R)(3R,4R) or (1R,2S)(3R,4R) or (1R,2R)(3R,4R) or (1S,2S)(3R,4R) 2-(4-{6-chloro-2-[(5-chloro-1-cyclopropyl-1H-pyrazol-4-yl)amino]quinazolin-7-yl}-3-fluoropiperidin-1-yl)cyclopentan-1-ol] | 8.38 | –
2 | F[C@@H]1CN(C2COC2)C[C@H]1c1cc2nc(Nc3cnn(C4CC4)c3Cl)ncc2cc1Cl (single isomer, unassigned) [Ex-4.42, (3S,4R) or (3R,4S) 6-chloro-N-(5-chloro-1-cyclopropyl-1H-pyrazol-4-yl)-7-[4-fluoro-1-(oxetan-3-yl)pyrrolidin-3-yl]quinazolin-2-amine] | 7.21 | –
3 | Cn1ncc(Nc2ncc3cc(Cl)c([C@@H]4CCN([C@H]5COC[C@H]5O)C[C@H]4F)cc3n2)c1C1CC1 (single isomer, unassigned) [Ex-4.240, (3S,4S)(3S,4S) or (3S,4S)(3R,4R) or (3R,4R)(3S,4S) or (3R,4R)(3R,4R) 4-(4-{6-chloro-2-[(5-cyclopropyl-1-methyl-1H-pyrazol-4-yl)amino]quinazolin-7-yl}-3-fluoropiperidin-1-yl)oxolan-3-ol] | 7.57 | –
4 | Clc1cc2cnc(Nc3cnn(C4CC4)c3Cl)nc2cc1C1CCN(C2COC3(CCC3)C2)CC1 (single isomer, unassigned) [Ex-4.114, (R) or (S) 7-(1-(5-oxaspiro[3.4]octan-7-yl)piperidin-4-yl)-6-chloro-N-(5-chloro-1-cyclopropyl-1H-pyrazol-4-yl)quinazolin-2-amine] | – | 10 nM
5 | CC(n1ncc(Nc2ncc3cc(Cl)c([C@H]4CCN(C)C[C@@H]4F)cc3n2)c1Cl)C(C)(C)O (single isomer, unassigned) [Ex-4.66, (R)(3S,4S) or (R)(3R,4R) or (S)(3S,4S) or (S)(3R,4R) 3-(5-chloro-4-{[6-chloro-7-(3-fluoro-1-methylpiperidin-4-yl)quinazolin-2-yl]amino}-1H-pyrazol-1-yl)-2-methylbutan-2-ol] | 8.70 | –
6 | Cc1c(Nc2ncc3cc(Cl)c(C4CCN(C[C@@H](O)c5ccccc5F)CC4)cc3n2)cnn1C1CC1 [Ex-4.202, (1S)-2-(4-{6-chloro-2-[(1-cyclopropyl-5-methyl-1H-pyrazol-4-yl)amino]quinazolin-7-yl}piperidin-1-yl)-1-(2-fluorophenyl)ethan-1-ol] | 8.47 | –
7 | Cc1cc2cnc(Nc3cnn(C4CC4(F)F)c3C)nc2cc1[C@@H]1CCN([C@H]2COC[C@H]2O)C[C@H]1F (single isomer, unassigned) [Ex-4.143, (R)(3S,4S)(3S,4S) or (R)(3S,4S)(3R,4R) or (R)(3R,4R)(3S,4S) or (R)(3R,4R)(3R,4R) or (S)(3S,4S)(3S,4S) or (S)(3S,4S)(3R,4R) or (S)(3R,4R)(3S,4S) or (S)(3R,4R)(3R,4R) 4-[4-(2-{[1-(2,2-difluorocyclopropyl)-5-methyl-1H-pyrazol-4-yl]amino}-6-methylquinazolin-7-yl)-3-fluoropiperidin-1-yl]oxolan-3-ol] | >9.20 | –
8 | FC1(c2cc3nc(Nc4cnn(C5CC5)c4Cl)ncc3cc2Cl)CCN(C2COC2)CC1 [Ex-4.31, 6-chloro-N-(5-chloro-1-cyclopropyl-1H-pyrazol-4-yl)-7-[4-fluoro-1-(oxetan-3-yl)piperidin-4-yl]quinazolin-2-amine] | 8.23 | –
9 | Clc1cc2cnc(Nc3cnn(C4CC4)c3Cl)nc2cc1C1CCN(C2CCOC2)CC1 (single isomer, unassigned) [Ex-4.49, (S) or (R) 6-chloro-N-(5-chloro-1-cyclopropyl-1H-pyrazol-4-yl)-7-[1-(oxolan-3-yl)piperidin-4-yl]quinazolin-2-amine] | – | < 0.631 nM
10 | Cc1c(Nc2ncc3cc(Cl)c(C4CCN(C[C@H](O)c5ccc(F)cc5F)CC4)cc3n2)cnn1C1CC1 [Ex-4.201, (1R)-2-(4-{6-chloro-2-[(1-cyclopropyl-5-methyl-1H-pyrazol-4-yl)amino]quinazolin-7-yl}piperidin-1-yl)-1-(2,4-difluorophenyl)ethan-1-ol] | 8.19 | –
11 | Cc1cc(Nc2ncc3cc(Cl)c(C4CCN([C@H]5COC[C@H]5O)CC4)cc3n2)sn1 (single isomer, unassigned) [Ex-2.55, (3S,4S) or (3R,4R)4-(4-{6-chloro-2-[(3-methyl-l,2-thiazol-5-yl)amino]quinazolin-7-yl}piperidin-1-yl)oxolan-3-ol] | >9.20 | –
12 | Cc1c(Nc2ncc3cc(Cl)c(C4CCN(C5CCC(CC#N)C5)CC4)cc3n2)cnn1C1CC1 (single isomer, unassigned) [Ex-4.170, (1R,3R) or (1S,3R) or (1R,3S) or (1S,3S) [3-(4-{6-chloro-2-[(1-cyclopropyl-5-methyl-1H-pyrazol-4-yl)amino]quinazolin-7-yl}piperidin-1-yl)cyclopentyl]acetonitrile] | 8.81 | –
13 | Cc1c(Nc2ncc3cc(Cl)c(C4CCN([C@H]5COC[C@H]5O)CC4)cc3n2)cnn1C1CC1 (single isomer, unassigned) [Ex-4.132, (3S,4S) or (3R,4R) 4-(4-{6-chloro-2-[(1-cyclopropyl-5-methyl-1H-pyrazol-4-yl)amino]quinazolin-7-yl}piperidin-1-yl)oxolan-3-ol] | >9.20 | –
14 | COCC12CC(n3cc(Nc4ncc5cc(Cl)c(C6CCN(C7(C)COC7)CC6)cc5n4)cn3)(C1)C2 [Ex-2.3, 6-chloro-N-(1-(3-(methoxymethyl)bicyclo[1.1.1]pentan-1-yl)-1H-pyrazol-4-yl)-7-(1-(3-methyloxetan-3-yl)piperidin-4-yl)quinazolin-2-amine] | >9.20 | –
15 | Cn1ncc(Nc2ncc3cc(Cl)c([C@@H]4CCN([C@]5(C)COC[C@@H]5O)C[C@H]4F)cc3n2)c1Cl (single isomer, unassigned) [Ex-4.233, (3S,4S)(3S,4S) or (3S,4S)(3R,4R) or (3R,4R)(3S,4S) or (3R,4R)(3R,4R) 4-(4-{6-chloro-2-[(5-chloro-1-methyl-1H-pyrazol-4-yl)amino]quinazolin-7-yl}-3-fluoropiperidin-1-yl)-4-methyloxolan-3-ol] | >9.20 | –
16 | O[C@@H]1COC[C@@H]1N1CC[C@H](c2cc3nc(Nc4cnn(C56CC(C5)C6)c4)ncc3cc2Cl)[C@@H](F)C1 (single isomer, unassigned) [Ex-4.155, (3S,4S)(3S,4S) or (3S,4S)(3R,4R) or (3R,4R)(3S,4S) or (3R,4R)(3R,4R) 4-[4-(2-{[1-(bicyclo[1.1.1]pentan-1-yl)-1H-pyrazol-4-yl]amino}-6-chloroquinazolin-7-yl)-3-fluoropiperidin-1-yl]oxolan-3-ol] | >9.20 | –
17 | Cc1cc2cnc(Nc3cnn(C4CC4)c3Cl)nc2cc1C1CCN(C2COC2)CC1 [Ex-4.84, N-(5-chloro-1-cyclopropyl-1H-pyrazol-4-yl)-6-methyl-7-[1-(oxetan-3-yl)piperidin-4-yl]quinazolin-2-amine] | 9.01 | –
18 | CC(C)(O)CN1CCC(c2cc3nc(Nc4cnn(C5CC5)c4)ncc3cc2Cl)C1 (single isomer, unassigned) [Ex-1.4, (S) or (R) 1-(3-(6-chloro-2-((1-cyclopropyl-1H-pyrazol-4-yl)amino)quinazolin-7-yl)pyrrolidin-1-yl)-2-methylpropan-2-ol] | – | 24 nM
19 | Cc1c(Nc2ncc3cc(Cl)c([C@@H]4CCN([C@H]5COC[C@H]5O)C[C@H]4F)cc3n2)cnn1C12CC(C1)C2 (single isomer, unassigned) [Ex-4.162, (3S,4S)(3S,4S) or (3S,4S)(3R,4R) or (3R,4R)(3S,4S) or (3R,4R)(3R,4R) 4-[4-(2-{[1-(bicyclo[1.1.1]pentan-1-yl)-5-methyl-1H-pyrazol-4-yl]amino}-6-chloroquinazolin-7-yl)-3-fluoropiperidin-1-yl]oxolan-3-ol] | >9.20 | –
20 | CC(n1ncc(Nc2ncc3cc(Cl)c([C@H]4CCN(C)C[C@@H]4F)cc3n2)c1Cl)C(C)(C)O (single isomer, unassigned) [Ex-4.68, (R)(3S,4S) or (R)(3R,4R) or (S)(3S,4S) or (S)(3R,4R) 3-(5-chloro-4-{[6-chloro-7-(3-fluoro-1-methylpiperidin-4-yl)quinazolin-2-yl]amino}-1H-pyrazol-1-yl)-2-methylbutan-2-ol] | 8.92 | –
21 | CC1OCC1N1CCC(c2cc3nc(Nc4cnn(CC(C)(C)O)c4Cl)ncc3cc2Cl)CC1 (single isomer, unassigned) [Ex-4.75, (2R,3R) or (2S,3S) or (2S,3R) or (2R,3S) 1-[5-chloro-4-({6-chloro-7-[1-(2-methyloxetan-3-yl)piperidin-4-yl]quinazolin-2-yl}amino)-1H-pyrazol-1-yl]-2-methylpropan-2-ol] | 8.14 | –
22 | CC1(n2ncc(Nc3ncc4cc(Cl)c(C5CCN(C6CS(=O)(=O)C6)CC5)cc4n3)c2Cl)CC1 [Ex-8.12, 3-(4-(6-chloro-2-((5-chloro-1-(1-methylcyclopropyl)-1H-pyrazol-4-yl)amino)quinazolin-7-yl)piperidin-1-yl)thietane 1,1-dioxide] | 8.92 | –
23 | Cn1ncc(Nc2ncc3cc(Cl)c([C@H]4CCN([C@@H]5COC[C@@H]5O)C[C@@H]4F)cc3n2)c1C1CC1 (single isomer, unassigned) [Ex-4.241, (3S,4S)(3S,4S) or (3S,4S)(3R,4R) or (3R,4R)(3S,4S) or (3R,4R)(3R,4R) 4-(4-{6-chloro-2-[(5-cyclopropyl-1-methyl-1H-pyrazol-4-yl)amino]quinazolin-7-yl}-3-fluoropiperidin-1-yl)oxolan-3-ol] | >9.20 | –

— US12540131B2 (Merck Sharp & Dohme LLC, priority 2019, dated 2026)
